The record followed here is patent publication US12162861B2, “Dopamine D3 receptor selective antagonists/partial agonists; method of making; and use thereof” (THE UNITED STATES OF AMERICA, AS REPRESENTED BY THE …, priority 2016, dated 2024).

In one experiment the target is T1, human D2R (Homo sapiens, UniProt P14416).
T1 construct: expressed in transfected cells; host or cells: HEK293
The experiment is described as follows: Radioligand competition binding, [3H]N-methylspiperone, D2R. The settings on record: Table 1A; ratio of Ki values. Here is the method:
Binding at dopamine D2-like receptors was determined using previously described methods. (Chen et al. “Tranylcypromine substituted cis-hydroxycyclobutylnaphthamides as potent and selective dopamine D(3) receptor antagonists.” J. Med. Chem. 2014, 57, 4962-4968) Membranes were prepared from HEK293 cells expressing human D2R, D3R or D4R, grown in a 50:50 mix of DMEM and Ham's F12 culture media, supplemented with 20 mM HEPES, 2 mM L-glutamine, 0.1 mM non-essential amino acids, 1× antibiotic/antimycotic, 10% heat-inactivated fetal bovine serum, and 200 μg/mL hygromycin (Life Technologies, Grand Island, NY) and kept in an incubator at 37° C. and 5% CO2. Upon reaching 80-90% confluence, cells were harvested using pre-mixed Earle's Balanced Salt Solution (EBSS) with 5 μM EDTA (Life Technologies) and centrifuged at 3000 rpm for 10 min at 21° C. The supernatant was removed and the pellet was resuspended in 10 mL hypotonic lysis buffer (5 mM MgCl2·6H2O, 5 mM Tris, pH 7.4 at 4° C.) and centrifuged at 20,000 rpm for 30 min at 4° C. The pellet was then resuspended in fresh EBSS buffer made from 8.7 g/L Earle's Balanced Salts without phenol red (US Biological, Salem, MA), 2.2 g/L sodium bicarbonate, pH to 7.4. A Bradford protein assay (Bio-Rad, Hercules, CA) was used to determine the protein concentration and membranes were diluted to 500 μg/mL and stored in a −80° C. freezer for later use.
(§1) Radioligand competition binding experiments were conducted using thawed membranes. Test compounds were freshly dissolved in 30% DMSO and 70% H2O to a stock concentration of 100 μM. To assist the solubilization of free-base compounds, 10 μl of glacial acetic acid was added along with the DMSO. Each test compound was then diluted into 13 half-log serial dilutions using 30% DMSO vehicle; final test concentrations ranged from 10 μM to 10 pM. Previously frozen membranes were diluted in fresh EBSS to a 100 μg/mL (for hD2R or hD3R) or 200 μg/mL (hD4R) stock for binding. Radioligand competition experiments were conducted in glass tubes containing 300 μl fresh EBSS buffer with 0.2 mM sodium metabisulfite, 50 μl of diluted test compound, 100 μl of membranes (10 μg total protein for hD2R or hD3R, 20 μg total protein for hD4R), and 50 μl of [^3H]N-methylspiperone (0.4 nM final concentration; Perkin Elmer). Nonspecific binding was determined using 10 μM butaclamol (Sigma-Aldrich, St. Louis, MO) and total binding was determined with 30% DMSO vehicle. All compound dilutions were tested in triplicate and the reaction incubated for one hour at room temperature. The reaction was terminated by filtration through Whatman GF/B filters, presoaked for one hour in 0.5% polyethylenimine, using a Brandel R48 filtering manifold (Brandel Instruments, Gaithersburg, MD). The filters were washed 3 times with 3 mL of ice cold EBSS buffer and transferred to scintillation vials. 3 mL CytoScint liquid scintillation cocktail (MP Biomedicals, Solon, OH) was added and vials were counted using a Perkin Elmer Tri-Carb 2910 TR liquid scintillation counter (Waltham, MA). IC50 values for each compound were determined from dose-response curves and Ki values were calculated using the Cheng-Prusoff equation; these analyses were performed using GraphPad Prism version 5.00 for Windows (GraphPad Software, San Diego, CA). Reported Ki values were determined from least three independent experiments.

In the next experiment the target is T2, human D3R (Homo sapiens, UniProt P35462).
T2 construct: expressed in transfected cells; host or cells: HEK293
The experiment is described as follows: Radioligand competition binding, [3H]N-methylspiperone, D3R. The note with it: Table 1A; for D4/D3: ratio of Ki values; for D3R K ± SEM (nM): HEK 293 cells transfected with hD3R, [3H]N-methylspiperone. As for the experimental part: Binding at dopamine D2-like receptors was determined using previously described methods. […] Upon reaching 80-90% confluence, cells were harvested using pre-mixed Earle's Balanced Salt Solution (EBSS) with 5 μM EDTA (Life Technologies) and centrifuged at 3000 rpm for 10 min at 21° C. The supernatant was removed and the pellet was resuspended in 10 mL hypotonic lysis buffer (5 mM MgCl2·6H2O, 5 mM Tris, pH 7.4 at 4° C.) and centrifuged at 20,000 rpm for 30 min at 4° C. The pellet was then resuspended in fresh EBSS buffer made from 8.7 g/L Earle's Balanced Salts without phenol red (US Biological, Salem, MA), 2.2 g/L sodium bicarbonate, pH to 7.4. A Bradford protein assay (Bio-Rad, Hercules, CA) was used to determine the protein concentration and membranes were diluted to 500 μg/mL and stored in a −80° C. freezer for later use.
as §1, with “3 mL CytoScint liquid scintillation cocktail (MP Biomedicals, Solon, OH) was added and vials were counted using a Perkin Elmer Tri-Carb 2910 TR liquid scintillation counter (Waltham, MA).” left out
(Loss of bound radioactivity is the signal in a displacement assay; it reports binding, not function.)

T1 sequence (P14416 whole entry): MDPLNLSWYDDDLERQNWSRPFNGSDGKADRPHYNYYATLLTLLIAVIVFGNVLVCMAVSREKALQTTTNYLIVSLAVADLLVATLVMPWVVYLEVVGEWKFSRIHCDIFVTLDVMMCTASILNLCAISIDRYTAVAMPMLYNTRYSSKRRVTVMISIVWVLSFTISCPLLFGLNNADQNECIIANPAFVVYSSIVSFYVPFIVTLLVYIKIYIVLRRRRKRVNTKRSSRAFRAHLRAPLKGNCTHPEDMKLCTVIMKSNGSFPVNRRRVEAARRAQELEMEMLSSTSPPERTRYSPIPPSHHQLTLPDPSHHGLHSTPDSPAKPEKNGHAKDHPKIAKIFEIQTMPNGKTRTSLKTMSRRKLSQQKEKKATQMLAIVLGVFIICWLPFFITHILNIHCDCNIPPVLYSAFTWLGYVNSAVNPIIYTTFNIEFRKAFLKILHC
T2 sequence (P35462 whole entry): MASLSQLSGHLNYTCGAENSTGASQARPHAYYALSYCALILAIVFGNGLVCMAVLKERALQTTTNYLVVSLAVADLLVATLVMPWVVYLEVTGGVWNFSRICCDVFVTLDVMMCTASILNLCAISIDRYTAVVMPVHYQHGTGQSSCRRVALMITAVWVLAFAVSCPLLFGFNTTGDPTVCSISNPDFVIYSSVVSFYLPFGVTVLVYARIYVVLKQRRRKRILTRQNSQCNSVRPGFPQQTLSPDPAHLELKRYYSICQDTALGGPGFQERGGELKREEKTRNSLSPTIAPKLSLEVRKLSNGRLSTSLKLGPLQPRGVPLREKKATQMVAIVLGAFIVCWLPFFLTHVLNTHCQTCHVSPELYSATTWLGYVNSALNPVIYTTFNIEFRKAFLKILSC

As to `CCc1cccc(N2CCN(C/C=C/CNC(=O)c3nc(C)c[nH]3)CC2)c1Cl` [Compound 35, (E)-N-(4-(4-(2-Chloro-3-ethylphenyl)piperazin-1-yl)but-2-en-1-yl)-4-methyl-1H-imidazole-2-carboxamide], on human D2R, the D4/D2 was determined as 31.2. Further, the D4/D3 at human D3R turned out to be 393.
`CCc1cccc(N2CCN(CC(O)CCNC(=O)c3nc(C)c[nH]3)CC2)c1Cl` (centres unmarked) [Compound 27, N-(4-(4-(2-Chloro-3-ethylphenyl)piperazin-1-yl)-3-hydroxybutyl)-4-methyl-1H-imidazole-2-carboxamide]: the D4/D2 on human D2R was 13.1. The D4/D3 at human D3R was determined as 175.
In the case of `CCc1cccc(N2CCN(CCCCNC(=O)c3cc4ccccc4o3)CC2)c1Cl` [Compound 20, N-(4-(4-(2-Chloro-3-ethylphenyl)piperazin-1-yl)butyl)benzofuran-2-carboxamide], the D4/D2 on human D2R is listed as 56. In addition, on human D3R, the “D3R K ± SEM (nM)” value is “subnanomolar binding affinities” and the D4/D3 turned out to be 2327.
Take `CCc1cccc(N2CCN(CCCCNC(=O)c3c(C)nc4sccn34)CC2)c1Cl` [Compound 24, N-(4-(4-(2-chloro-3-ethylphenyl)piperazin-1-yl)butyl)-6-methylimidazo[2,1-b]thiazole-5-carboxamide]: the D4/D2 at human D2R was found to be 30.8. The D4/D3 on human D3R is given as 152.
For the molecule `CCc1cc(Cl)c(OC)c(N2CCN(CC(O)CCNC(=O)c3cc4ccccc4o3)CC2)c1` (centres unmarked) [Compound 31, N-(4-(4-(3-Chloro-5-ethyl-2-methoxyphenyl)piperazin-1-yl)-3-hydroxybutyl)benzofuran-2-carboxamide], the D4/D2 on human D2R is given as 3.3. Moreover, the D4/D3 at human D3R was found to be 146.
Taken in the same sequence, the figures for `CCc1cccc(N2CCN(CC(O)CCNC(=O)c3cn4ccccc4n3)CC2)c1Cl` (centres unmarked) [Compound 23, N-(4-(4-(2-Chloro-3-ethylphenyl)piperazin-1-yl)-3-hydroxybutyl)imidazo[1,2-a]pyridine-2-carboxamide] were 58.5 and 2671.
Taken in the same sequence, the figures for `CCc1cccc(N2CCN(CCCCNC(=O)c3cc4ccccc4[nH]3)CC2)c1Cl` [Compound 18, N-(4-(4-(2-Chloro-3-ethylphenyl)piperazin-1-yl)butyl)-1H-indole-2-carboxamide] were 61 and 2352.
The like results for `CCc1cccc(N2CCN(CCCCNC(=O)c3cn4ccccc4n3)CC2)c1Cl` [Compound 22, N-(4-(4-(2-chloro-3-ethylphenyl)piperazin-1-yl)butyl)imidazo[1,2-a]pyridine-2-carboxamide] were, in that order, 145.2 and 2482.
On to `CCc1cccc(N2CCN(CCC(O)CNC(=O)c3cc4ccccc4[nH]3)CC2)c1Cl` (centres unmarked) [Compound 40, N-(4-(4-(2-Chloro-3-ethylphenyl)piperazin-1-yl)-2-hydroxybutyl)-1H-indole-2-carboxamide], for which the D4/D2 at human D2R is 44.7. Moreover, on human D3R, the D4/D3 amounted to 1525.
Consider `CCc1cccc(N2CCN(CCCCNC(=O)c3nc(C)c[nH]3)CC2)c1Cl` [Compound 26, N-(4-(4-(2-Chloro-3-ethylphenyl)piperazin-1-yl)butyl)-4-methyl-1H-imidazole-2-carboxamide], for which the D4/D2 at human D2R was found to be 43.4. Also, on human D3R, the D4/D3 worked out at 853.
Take `CCc1cccc(N2CCN(CC(O)CCNC(=O)c3cc4ccccc4o3)CC2)c1Cl` (centres unmarked) [Compound 21, N-(4-(4-(2-Chloro-3-ethylphenyl)piperazin-1-yl)-3-hydroxybutyl)benzofuran-2-carboxamide]: at human D2R, the D4/D2 amounted to 15. Further, at human D3R, the “D3R K ± SEM (nM)” value is reported as “subnanomolar binding affinities” and the D4/D3 worked out at 2417.
For the molecule `CCc1c[nH]c(C(=O)NCCCCN2CCN(c3cccc(CC)c3Cl)CC2)n1` [Compound 25, N-(4-(4-(2-Chloro-3-ethylphenyl)piperazin-1-yl)butyl)-4-ethyl-1H-imidazole-2-carboxamide], at human D2R, the D4/D2 stood at 40.0. In addition, on human D3R, the D4/D3 stood at 439.
